The values that follow come from ChEMBL document CHEMBL1154275, “Synthesis and biological evaluation of new heterocyclic quinolinones as anti-parasite and anti-HIV drug candidates” (Bioorg Med Chem Lett, 2009).

One may read the EC50 as the concentration needed to bring the measured effect to its halfway point. Broadly, the CC50 is the concentration giving 50% cytotoxicity. Lower therefore signals greater toxicity to the cells. As a reminder, the IC50 is the point on the concentration scale where inhibition reaches its midpoint.

Series [1] concerns Human immunodeficiency virus 1. The experiment in a line: Antiviral activity against HIV1 3B infected in human MT4 cells after 4 days by MTT assay. The class given is functional, organism-based. On the technique in general: Tetrazolium assays rely on reduction of a dye to a coloured formazan, in cell work by metabolically active cells.
Series [2] deals with Human immunodeficiency virus 2. The experiment in a line: Antiviral activity against HIV2 ROD infected in human MT4 cells after 4 days by MTT assay. Format: functional, organism-based, ISOLATE ROD.
The next series deals with MT4. As to the kind of experiment: (§1) Cytotoxicity against human MT4 cells after 4 days by MTT assay. The conditions noted are these: mt4, 96 h. Format: cell-based.
Another series concerns Plasmodium falciparum. As to the kind of experiment: Antimalarial activity against chloroquine, pyrimethamine, proguanil-resistant Plasmodium falciparum infected in human erythrocytes after 48 hrs by flow cytometry. Format: functional, organism-based.
A further series has as its system THP-1. As to the kind of experiment: Cytotoxicity against human THP1 cells after 72 hrs by propidium iodide staining-based flow cytometry. Format: cell-based.
Series [3] deals with Leishmania donovani. The experiment in a line: Antileishmanial activity against Leishmania donovani MHOM/IN/78/80/DD8 promastigote by alamar blue method. Format: functional, organism-based. (In general: Resazurin is reduced to fluorescent resorufin, in cell work by metabolically active cells.)
Series [4] deals with Leishmania donovani. The experiment in a line: Antileishmanial activity against Leishmania donovani MHOM/IN/78/80/DD8 amastigote by alamar blue method. The class given is functional, organism-based.
In a further series the test system is Trichomonas vaginalis. The experiment in a line: Antitrichomonal activity against Trichomonas vaginalis TVR79 after 48 hrs by optical microscopy. Format: functional, organism-based.
Series [5] can be described thus: Selectivity index, ratio of IC50 for human THP1 cells to IC50 for Plasmodium falciparum. The class given is toxicity, cell-based, THP-1.
A short description of series [6]: as §1. The class given is cell-based. To be noted: MT4 cells.
[7] abbreviates: Human immunodeficiency virus 1, 3B, MT4, 96 h, read-out: EC50.
Where [8] appears, read: Human immunodeficiency virus 2, ISOLATE ROD, MT4, 96 h, read-out: EC50.
Where [9] appears, read: Plasmodium falciparum, 48 h, read-out: IC50.
Setting [10] is: Homo sapiens, THP-1, 72 h, read-out: IC50.
[11] abbreviates: Leishmania donovani, MHOM/IN/78/80/DD8, read-out: IC50.
Setting [12] is: Trichomonas vaginalis, TVR79, 48 h, read-out: IC50.

SMILES strings stand for the structures.

With `O=c1cc[nH]c2ccc3[nH]ncc3c12`, the EC50 result in [1] (mt4) and in series [2] (mt4) was “ND(Insoluble)” in each case. In addition, the CC50 result in the series with MT4 was “ND(Insoluble)”. The IC50 result in the series on Plasmodium falciparum, in the series with THP-1 (thp-1), with Leishmania donovani [3], in the series on Leishmania donovani [4] and in the series on Trichomonas vaginalis was “ND(Insoluble)” in each case. Moreover, the selectivity index result in series [5] (thp-1) is “ND(Insoluble)”.

In the case of `O=c1cc[nH]c2ccc3nn[nH]c3c12`, the EC50 entry in [1] (mt4) and in series [2] (mt4) was “ND(Insoluble)” each time. Also, in the series on MT4, the half-maximal cytotoxic concentration (CC50) result is recorded as “ND(Insoluble)”. The IC50 entry with Plasmodium falciparum, in the series with THP-1 (thp-1), in the series on Leishmania donovani [3], in the series on Leishmania donovani [4] and in the series on Trichomonas vaginalis was “ND(Insoluble)” each time. Further, the selectivity index result in series [5] (thp-1) is “ND(Insoluble)”.

Take `O=c1cc[nH]c2ccc3ncsc3c12`: the EC50 result in [1] (mt4) and in series [2] (mt4) was “ND(Insoluble)” each time. Further, the CC50 entry with MT4 is given as “ND(Insoluble)”. The 50% inhibitory concentration (IC50) result in the series on Plasmodium falciparum, in the series with THP-1 (thp-1), in the series with Leishmania donovani [3], with Leishmania donovani [4] and in the series on Trichomonas vaginalis was “ND(Insoluble)” in each case. Moreover, the selectivity index entry in series [5] (thp-1) was “ND(Insoluble)”.

As for `Cc1nc2ccc3c(c(=O)ccn3C)c2s1`, the EC50 in [1] (setting [7]) and in [2] (setting [8]) was over 341 µM each time. Further, in series [6], the CC50 at 96 h is over 341 µM. For the same compound, the concentration for half-maximal inhibition (IC50) is over 250 µM with Plasmodium falciparum (setting [9]); 115 µM in the series with THP-1 (setting [10]); over 100 µM in the series on Leishmania donovani [3] (setting [11]); over 100 µM with Leishmania donovani [4] (setting [11]); over 100 µM in the series on Trichomonas vaginalis (setting [12]). Besides, the selectivity index result in [5] (thp-1) is reported as “Not Active”.

On to `CC1(C)OC(=O)C(=CNc2ccc([N+](=O)[O-])cc2)C(=O)O1`, for which the EC50 in [1] (setting [7]) and in series [2] (setting [8]) was over 21.2 µM each time. This compound also yielded a half-maximal cytotoxic concentration (CC50) at 96 h in [6] of over 21.2 µM. The concentration for half-maximal inhibition (IC50) with Plasmodium falciparum (setting [9]) is 40 µM; in the series with THP-1 (setting [10]), over 250 µM; in the series with Leishmania donovani [3] (setting [11]) it was over 100 µM; in the series with Leishmania donovani [4] (setting [11]) it was over 100 µM; in the series on Trichomonas vaginalis (setting [12]) it was over 100 µM. Further, in [5] (human, THP-1 cells), the selectivity index was over 6.2.
